Source: patent US11666558B2, “Methods of treating intraocular pressure with activators of Tie-2” (EyePoint Pharmaceuticals, Inc., priority 2015, dated 2023)
Structures can show the parent of a compound that is named as a salt. Where two headings read alike, the source gives them in different places.

Test: Ocular tissue concentrations (aqueous humor, vitreous humor, iris, retina, choroid, cornea) after topical ocular, subcutaneous and intravitreal administration
Assay type: in vivo, New Zealand White rabbits
Settings: for concentration at 4 h / concentration at 0.5 h / concentration at 1 hr / concentration at 2 hr / concentration at 4 hr / concentration at 0.5 hr / concentration at 2 h / concentration at 1 h / concentration at 6 hr / concentration at 24 h / concentration at 48 h / concentration at 72 h: New Zealand White, rabbit; for concentration at 6 hr / concentration at 24 h / concentration at 48 h / concentration at 72 h: other: intravitreal, 2.5 mg per eye, Group 4 intravitreal 2.5 mg per eye
Protocol: To measure the concentration of Compound 1 in plasma and ocular tissues following topical ocular, subcutaneous, and intravitreal administration, New Zealand White rabbits were administered Compound 1, and plasma and ocular samples were collected at pre-determined time points. Compound 1 formulations were prepared fresh on each day of dosing.
Ocular tissue samples from both eyes of each animal were collected and weights were recorded. Plasma and ocular tissue sample concentrations of Compound 1 were determined by LC-MS/MS.
New Zealand White rabbits weighing 2.5 to 3.5 kg were used on this study. Rabbits were housed one per cage. Animals were not fasted and only healthy animals with no ocular illness were used. Two rabbits per group were sacrificed at each of four ocular tissue sampling time points for a total of eight rabbits per group.
Animals were anesthetized for ocular (topical) and intravitreal dosing following the 12IA7 IACUC protocol. Each rabbit received a bolus dose of test formulation either via topical ocular administration 3 times daily on Days 1 and 2 (at 0, 6, and 12 hours), and once on Day 3 (at 0 hours) into both eyes; via intravitreal administration into both eyes once on Day 1 (at 0 hours); or via subcutaneous administration 2 times daily on Days 1 and 2 (at 0 and 8 hours) and once daily on Day 3 (at 0 hours). Doses were given within an approximately 1 hour window each day where applicable.
On Day 1, for intravitreal administration, or on Day 3, for topical ocular and subcutaneous administration, at the appropriate ocular tissue collection time points, animals were euthanized and both eyes were enucleated immediately. Following enucleation, each eye was rinsed with phosphate-buffered saline. Ocular tissue samples from both eyes of each animal were collected at predetermined time points and weights were recorded. All the samples were frozen immediately on dry ice, and stored at −60° C. to −80° C. pending bioanalysis.
An LC-MS/MS method was developed for the determination of Compound 1 in rabbit aqueous tissues (plasma, aqueous and vitreous humor) and solid ocular tissue samples. A pre-study standard curve was analyzed to determine the specificity, range, and lower limit of quantitation of the method. Plasma and tissue homogenate study samples were extracted and analyzed. All the samples were treated identically to the standards.
One eight-point standard curve was used in each analytical batch. To be accepted, each batch must have had at least five of eight standards with accuracy within ±20% of nominal, except at the lower limit of quantification (LLOQ), where ±25% was acceptable.
Concentration versus time data is plotted in FIGS. 3-16. All data are expressed as ng/g of the free drug. Samples that were below the limit of quantitation (0.2 ng/mL) were not used in the calculation of averages.

[1] = vitreous humor, read-out: vitreous humor Average Conc.
[2] = vitreous humor, read-out: vitreous humor Conc., individual eyes (OD, OS)

concentration at 4 h (aqueous humor, topical, 1.2 mg/eye, Group 1 topical ocular 1.2 mg/eye, 4.0 hr, read-out: aqueous humor Average Conc.): 8.24 ng/g | concentration at 0.5 h (choroid, topical, 1.2 mg/eye, topical ocular 1.2 mg/eye (~0.7 mg/kg/dose), read-out: Choroid tissue Average): 57.7 ng/g | concentration at 1 hr (choroid, topical, 1.2 mg/eye, topical ocular 1.2 mg/eye (~0.7 mg/kg/dose), 1 hr, read-out: Choroid tissue Average): 32.2 ng/g | concentration at 2 hr (choroid, topical, 1.2 mg/eye, topical ocular 1.2 mg/eye (~0.7 mg/kg/dose), 2 hr, read-out: Choroid tissue Average): 59.2 ng/g | concentration at 4 hr (choroid, topical, 1.2 mg/eye, topical ocular 1.2 mg/eye (~0.7 mg/kg/dose), 4 hr, read-out: Choroid tissue Average): 165 ng/g | concentration at 0.5 hr (cornea, topical, 1.2 mg/eye, topical ocular 1.2 mg/eye (~0.7 mg/kg/dose), read-out: Cornea tissue Average): 1020 ng/g | concentration at 0.5 hr (cornea, topical, 1.2 mg/eye, topical ocular 1.2 mg/eye (~0.7 mg/kg/dose), read-out: Cornea tissue Conc., individual eyes (OD, OS)): 427 ng/g | concentration at 1 hr (cornea, topical, 1.2 mg/eye, topical ocular 1.2 mg/eye (~0.7 mg/kg/dose), 1 hr, read-out: Cornea tissue Average): 548 ng/g | concentration at 2 hr (cornea, topical, 1.2 mg/eye, topical ocular 1.2 mg/eye (~0.7 mg/kg/dose), 2 hr, read-out: Cornea tissue Average): 1070 ng/g | concentration at 4 hr (cornea, topical, 1.2 mg/eye, topical ocular 1.2 mg/eye (~0.7 mg/kg/dose), 4 hr, read-out: Cornea tissue Average): 534 ng/g | concentration at 0.5 hr (iris homogenate, topical, 1.2 mg/eye, topical ocular 1.2 mg/eye (~0.7 mg/kg/dose), read-out: Iris homogenate Conc., individual eyes (OD, OS)): 2.55 ng/mL | concentration at 0.5 hr (iris, topical, 1.2 mg/eye, topical ocular 1.2 mg/eye (~0.7 mg/kg/dose), read-out: Iris tissue Average): 24.3 ng/g | concentration at 0.5 hr (iris, topical, 1.2 mg/eye, topical ocular 1.2 mg/eye (~0.7 mg/kg/dose), read-out: Iris tissue Conc., individual eyes (OD, OS)): 17.8 ng/g | concentration at 1 hr (iris, topical, 1.2 mg/eye, topical ocular 1.2 mg/eye (~0.7 mg/kg/dose), 1 hr, read-out: Iris tissue Average): 55.2 ng/g | concentration at 2 h (iris, topical, 1.2 mg/eye, topical ocular 1.2 mg/eye (~0.7 mg/kg/dose), 2 hr, read-out: Iris tissue Average): 51.9 ng/g | concentration at 4 h (iris, topical, 1.2 mg/eye, topical ocular 1.2 mg/eye (~0.7 mg/kg/dose), 4 hr, read-out: Iris tissue Average): 261 ng/g | concentration at 4 h (iris, topical, 1.2 mg/eye, topical ocular 1.2 mg/eye (~0.7 mg/kg/dose), 4 hr, read-out: Iris tissue Conc., individual eyes (OD, OS)): 30.7 ng/g | concentration at 0.5 h (retina, topical, 1.2 mg/eye, topical ocular 1.2 mg/eye (~0.7 mg/kg/dose), read-out: Retina tissue Average): 25.6 ng/g | concentration at 1 h (retina, topical, 1.2 mg/eye, topical ocular 1.2 mg/eye (~0.7 mg/kg/dose), 1 hr, read-out: Retina tissue Average): 59.2 ng/g | concentration at 2 h (retina, topical, 1.2 mg/eye, topical ocular 1.2 mg/eye (~0.7 mg/kg/dose), 2 hr, read-out: Retina tissue Average): 48.3 ng/g | concentration at 4 h (retina, topical, 1.2 mg/eye, topical ocular 1.2 mg/eye (~0.7 mg/kg/dose), 4 hr, read-out: Retina tissue Average): 405 ng/g | concentration at 6 hr [1]: 988000 ng/g | concentration at 6 hr [2]: 592000 ng/mL | concentration at 24 h [1]: 350000 ng/g | concentration at 24 h [2]: 438000 ng/mL | concentration at 48 h [1]: 82000 ng/g | concentration at 48 h [2]: 85200 ng/mL | concentration at 72 h [1]: 13400 ng/g | concentration at 72 h [2]: 14500 ng/mL | concentration at 0.5 hr (vitreous humor, subcutaneous, 5 mg/kg, Group 2 subcutaneous 5 mg/kg, read-out: vitreous humor Average Conc.): 0.83 ng/g | concentration at 0.5 hr (vitreous humor, subcutaneous, 5 mg/kg, Group 2 subcutaneous 5 mg/kg, read-out: vitreous humor Conc., individual eyes (OD, OS)): 0.77 ng/mL | concentration at 1 hr (vitreous humor, subcutaneous, 5 mg/kg, Group 2 subcutaneous 5 mg/kg, 1.0 hr, read-out: vitreous humor Average Conc.): 0.45 ng/g | concentration at 0.5 h (vitreous humor, topical, 1.2 mg/eye, Group 1 topical ocular 1.2 mg/eye, read-out: vitreous humor Average Conc.): 0.61 ng/g | concentration at 0.5 h (vitreous humor, topical, 1.2 mg/eye, Group 1 topical ocular 1.2 mg/eye, read-out: vitreous humor Conc., individual eyes (OD, OS)): 0.528 ng/mL | concentration at 1 h (vitreous humor, topical, 1.2 mg/eye, Group 1 topical ocular 1.2 mg/eye, 1.0 hr, read-out: vitreous humor Average Conc.): 2.09 ng/g | concentration at 2 hr (vitreous humor, topical, 1.2 mg/eye, Group 1 topical ocular 1.2 mg/eye, 2.0 hr, read-out: vitreous humor Average Conc.): 3.33 ng/g | concentration at 2 hr (vitreous humor, topical, 1.2 mg/eye, Group 1 topical ocular 1.2 mg/eye, 2.0 hr, read-out: vitreous humor Conc., individual eyes (OD, OS)): 1.14 ng/mL | concentration at 4 hr (vitreous humor, topical, 1.2 mg/eye, Group 1 topical ocular 1.2 mg/eye, 4.0 hr, read-out: vitreous humor Average Conc.): 4.01 ng/g | aqueous humor concentrations (topical ocular administration, over four hours (FIG. 6)): below 50 ng/g
SMILES: COC(=O)N[C@@H](Cc1ccccc1)C(=O)N[C@@H](Cc1ccc(NS(=O)(=O)O)cc1)c1csc(-c2cccs2)n1 [Compound 1 sodium salt]
